According to ChEMBL document CHEMBL2385069, “Thiourea derivatives incorporating a hippuric acid moiety: synthesis and evaluation of antibacterial and antifungal activities” (2013):
In brackets after ≈: the same amount, converted by molar mass.

Columns and labels:
Priestia megaterium [1] = assay: Antibacterial activity against Bacillus megaterium ATCC 9885 assessed as diameter of inhibition zone at 1 mg/ml after 24 hrs by agar well diffusion method; assay type: functional; details: ATCC 9885, 24 h, read-out: DIZ
Klebsiella pneumoniae [2] = assay: Antibacterial activity against Klebsiella pneumoniae ATCC 13883 assessed as diameter of inhibition zone at 1 mg/ml after 24 hrs by agar well diffusion method; assay type: functional; details: ATCC 13883, 24 h, read-out: DIZ
Proteus vulgaris [3] = assay: Antibacterial activity against Proteus vulgaris after 24 hrs by two fold serial dilution technique; assay type: functional
Escherichia coli [4] = assay: Antibacterial activity against Escherichia coli ATCC 25922 after 24 hrs by two fold serial dilution technique; assay type: functional; details: ATCC 25922, 24 h
Proteus vulgaris [5] = assay: Antibacterial activity against Proteus vulgaris assessed as diameter of inhibition zone at 1 mg/ml after 24 hrs by agar well diffusion method; assay type: functional; details: read-out: DIZ
Micrococcus luteus [6] = assay: Antibacterial activity against Sarcina lutea assessed as diameter of inhibition zone at 1 mg/ml after 24 hrs by agar well diffusion method; assay type: functional; details: read-out: DIZ
Staphylococcus aureus [7] = assay: Antibacterial activity against Staphylococcus aureus ATCC 29213 after 24 hrs by two fold serial dilution technique; assay type: functional; details: ATCC 29213, 24 h
Saccharomyces cerevisiae [8] = assay: Antifungal activity against Saccharomyces cerevisiae assessed as diameter of inhibition zone at 1 mg/ml after 24 hrs by agar well diffusion method; assay type: functional; details: read-out: DIZ
Bacillus subtilis [9] = assay: Ratio of Ciprofloxacin MIC to compound MIC for Bacillus subtilis ATCC 6633; assay type: functional
Bacillus subtilis [10] = assay: Antibacterial activity against Bacillus subtilis ATCC 6633 assessed as diameter of inhibition zone at 1 mg/ml after 24 hrs by agar well diffusion method; assay type: functional; details: ATCC 6633, 24 h, read-out: DIZ
Priestia megaterium [11] = assay: Antibacterial activity against Bacillus megaterium ATCC 9885 after 24 hrs by two fold serial dilution technique; assay type: functional; details: ATCC 9885, 24 h
Klebsiella pneumoniae [12] = assay: Antibacterial activity against Klebsiella pneumoniae ATCC 13883 after 24 hrs by two fold serial dilution technique; assay type: functional; details: ATCC 13883, 24 h
Candida albicans [13] = assay: Antifungal activity against Candida albicans NRRLY-477 after 24 hrs by two fold serial dilution technique; assay type: functional; details: NRRLY-477, 24 h
Bacillus subtilis [14] = assay: Antibacterial activity against Bacillus subtilis ATCC 6633 after 24 hrs by two fold serial dilution technique; assay type: functional; details: ATCC 6633, 24 h
Escherichia coli [15] = assay: Antibacterial activity against Escherichia coli ATCC 25922 assessed as diameter of inhibition zone at 1 mg/ml after 24 hrs by agar well diffusion method; assay type: functional; details: ATCC 25922, 24 h, read-out: DIZ
Candida albicans [16] = assay: Antifungal activity against Candida albicans NRRLY-477 assessed as diameter of inhibition zone at 1 mg/ml after 24 hrs by agar well diffusion method; assay type: functional; details: NRRLY-477, 24 h, read-out: DIZ
Pseudomonas aeruginosa [17] = assay: Antibacterial activity against Pseudomonas aeruginosa ATCC 27953 assessed as diameter of inhibition zone at 1 mg/ml after 24 hrs by agar well diffusion method; assay type: functional; details: ATCC 27953, 24 h, read-out: DIZ
Saccharomyces cerevisiae [18] = assay: Antifungal activity against Saccharomyces cerevisiae after 24 hrs by two fold serial dilution technique; assay type: functional
Pseudomonas aeruginosa [19] = assay: Antibacterial activity against Pseudomonas aeruginosa ATCC 27953 after 24 hrs by two fold serial dilution technique; assay type: functional; details: ATCC 27953, 24 h
Micrococcus luteus [20] = assay: Antibacterial activity against Sarcina lutea after 24 hrs by two fold serial dilution technique; assay type: functional
Candida albicans [21] = assay: Ratio of ketoconazole MIC to compound MIC for Candida albicans NRRLY-477; assay type: functional
Staphylococcus aureus [22] = assay: Antibacterial activity against Staphylococcus aureus ATCC 29213 assessed as diameter of inhibition zone at 1 mg/ml after 24 hrs by agar well diffusion method; assay type: functional; details: ATCC 29213, 24 h, read-out: DIZ
Pseudomonas aeruginosa [23] = assay: Ratio of Ciprofloxacin MIC to compound MIC for Pseudomonas aeruginosa ATCC 27953; assay type: functional
Staphylococcus aureus [24] = assay: Ratio of Ciprofloxacin MIC to compound MIC for Staphylococcus aureus ATCC 29213; assay type: functional
Klebsiella pneumoniae [25] = assay: microbe, parasite or virus in culture; details: ATCC 13883, 24 h, read-out: DIZ
Description: Antibacterial activity against Klebsiella pneumoniae ATCC 13883 assessed as diameter of inhibition zone at 0.5 mg/ml after 24 hrs by agar well diffusion method

Staphylococcus aureus [26] = assay: microbe, parasite or virus in culture; details: ATCC 29213, 24 h, read-out: DIZ
Description: Antibacterial activity against Staphylococcus aureus ATCC 29213 assessed as diameter of inhibition zone at 0.5 mg/ml after 24 hrs by agar well diffusion method

Proteus vulgaris [27] = assay: Antibacterial activity against Proteus vulgaris assessed as diameter of inhibition zone at 0.5 mg/ml after 24 hrs by agar well diffusion method; assay type: functional; details: read-out: DIZ
Bacillus subtilis [28] = assay: microbe, parasite or virus in culture; details: ATCC 6633, 24 h, read-out: DIZ
Description: Antibacterial activity against Bacillus subtilis ATCC 6633 assessed as diameter of inhibition zone at 0.5 mg/ml after 24 hrs by agar well diffusion method

Pseudomonas aeruginosa [29] = assay: microbe, parasite or virus in culture; details: ATCC 27953, 24 h, read-out: DIZ
Description: Antibacterial activity against Pseudomonas aeruginosa ATCC 27953 assessed as diameter of inhibition zone at 0.5 mg/ml after 24 hrs by agar well diffusion method

Priestia megaterium [30] = assay: Antibacterial activity against Bacillus megaterium ATCC 9885 assessed as diameter of inhibition zone at 0.5 mg/ml after 24 hrs by agar well diffusion method; assay type: functional; details: ATCC 9885, 24 h, read-out: DIZ
Micrococcus luteus [31] = assay: Antibacterial activity against Sarcina lutea assessed as diameter of inhibition zone at 0.5 mg/ml after 24 hrs by agar well diffusion method; assay type: functional; details: read-out: DIZ
Candida albicans [32] = assay: Antifungal activity against Candida albicans NRRLY-477 assessed as diameter of inhibition zone at 0.5 mg/ml after 24 hrs by agar well diffusion method; assay type: functional; details: NRRLY-477, 24 h, read-out: DIZ
Saccharomyces cerevisiae [33] = assay: Antifungal activity against Saccharomyces cerevisiae assessed as diameter of inhibition zone at 0.5 mg/ml after 24 hrs by agar well diffusion method; assay type: functional; details: read-out: DIZ

| Compound | zone of inhibition at 1000 µg/mL (Priestia megaterium [1]) | zone of inhibition at 1000 µg/mL (Klebsiella pneumoniae [2]) | MIC (Proteus vulgaris [3]) | MIC (Escherichia coli [4]) | zone of inhibition at 1000 µg/mL (Proteus vulgaris [5]) | zone of inhibition at 1000 µg/mL (Micrococcus luteus [6]) | MIC (Staphylococcus aureus [7]) | zone of inhibition at 1000 µg/mL (Saccharomyces cerevisiae [8]) | zone of inhibition at 1000 µg/mL (Bacillus subtilis [10]) | MIC (Priestia megaterium [11]) | MIC (Klebsiella pneumoniae [12]) | MIC (Candida albicans [13]) | MIC (Bacillus subtilis [14]) | zone of inhibition at 1000 µg/mL (Escherichia coli [15]) | zone of inhibition at 1000 µg/mL (Candida albicans [16]) | zone of inhibition at 1000 µg/mL (Pseudomonas aeruginosa [17]) | MIC (Saccharomyces cerevisiae [18]) | MIC (Pseudomonas aeruginosa [19]) | MIC (Micrococcus luteus [20]) | zone of inhibition at 1000 µg/mL (Staphylococcus aureus [22]) | also measured |
| --- | --- | --- | --- | --- | --- | --- | --- | --- | --- | --- | --- | --- | --- | --- | --- | --- | --- | --- | --- | --- | --- |
| O=C(O)CNC(=O)c1ccc(NC(=S)Nc2cccc(Br)c2)cc1 | 32 mm | 30 mm | 6.25 mg/L (≈ 15.3 µM) | 6.25 mg/L (≈ 15.3 µM) | 24 mm | 20 mm | 6.25 mg/L (≈ 15.3 µM) | 28 mm | 30 mm | 3.12 mg/L (≈ 7.64 µM) | 6.25 mg/L (≈ 15.3 µM) | 3.12 mg/L (≈ 7.64 µM) | 3.12 mg/L (≈ 7.64 µM) | 27 mm | 30 mm | 22 mm | 6.25 mg/L (≈ 15.3 µM) | 12.5 mg/L (≈ 30.6 µM) | 12.5 mg/L (≈ 30.6 µM) | 31 mm | Ratio (Bacillus subtilis [9]): 2; Ratio (Candida albicans [21]): 2 |
| O=C(O)CNC(=O)c1ccc(NC(=S)Nc2cccc(F)c2)cc1 | 27 mm | 23 mm | 12.5 mg/L (≈ 36 µM) | 12.5 mg/L (≈ 36 µM) | 25 mm | 20 mm | 50 mg/L (≈ 144 µM) | 17 mm | 18 mm | 12.5 mg/L (≈ 36 µM) | 12.5 mg/L (≈ 36 µM) | 12.5 mg/L (≈ 36 µM) | 12.5 mg/L (≈ 36 µM) | 20 mm | 22 mm | 21 mm | 25 mg/L (≈ 72 µM) | 12.5 mg/L (≈ 36 µM) | 12.5 mg/L (≈ 36 µM) | 20 mm | – |
| O=C(O)CNC(=O)c1ccc(NC(=S)Nc2ccc(S(=O)(=O)Nc3ncccn3)cc2)cc1 | 27 mm | 17 mm | 12.5 mg/L (≈ 25.7 µM) | 6.25 mg/L (≈ 12.8 µM) | 21 mm | 25 mm | 3.12 mg/L (≈ 6.41 µM) | 30 mm | 26 mm | 12.5 mg/L (≈ 25.7 µM) | 12.5 mg/L (≈ 25.7 µM) | 12.5 mg/L (≈ 25.7 µM) | 12.5 mg/L (≈ 25.7 µM) | 32 mm | 25 mm | 34 mm | 3.12 mg/L (≈ 6.41 µM) | 3.12 mg/L (≈ 6.41 µM) | 12.5 mg/L (≈ 25.7 µM) | 32 mm | Ratio (Pseudomonas aeruginosa [23]): 4; Ratio (Staphylococcus aureus [24]): 2 |
| Nc1n[nH]c(NC(=S)Nc2ccc(C(=O)NCC(=O)O)cc2)c1/N=N/c1ccc(Cl)cc1 | 27 mm | 22 mm | 6.25 mg/L (≈ 13.2 µM) | 6.25 mg/L (≈ 13.2 µM) | 28 mm | 30 mm | 6.25 mg/L (≈ 13.2 µM) | 25 mm | 32 mm | 6.25 mg/L (≈ 13.2 µM) | 12.5 mg/L (≈ 26.4 µM) | 3.12 mg/L (≈ 6.6 µM) | 3.12 mg/L (≈ 6.6 µM) | 28 mm | 30 mm | 28 mm | 12.5 mg/L (≈ 26.4 µM) | 12.5 mg/L (≈ 26.4 µM) | 12.5 mg/L (≈ 26.4 µM) | 28 mm | Ratio (Bacillus subtilis [9]): 2; Ratio (Candida albicans [21]): 2 |
| O=C(O)CNC(=O)c1ccc(NC(=S)NNS(=O)(=O)c2ccccc2)cc1 | 31 mm | 25 mm | 12.5 mg/L (≈ 30.6 µM) | 6.25 mg/L (≈ 15.3 µM) | 20 mm | 20 mm | 6.25 mg/L (≈ 15.3 µM) | 24 mm | 30 mm | 3.12 mg/L (≈ 7.64 µM) | 12.5 mg/L (≈ 30.6 µM) | 3.12 mg/L (≈ 7.64 µM) | 3.12 mg/L (≈ 7.64 µM) | 29 mm | 32 mm | 23 mm | 12.5 mg/L (≈ 30.6 µM) | 12.5 mg/L (≈ 30.6 µM) | 12.5 mg/L (≈ 30.6 µM) | 32 mm | Ratio (Bacillus subtilis [9]): 2; Ratio (Candida albicans [21]): 2 |
| O=C(O)c1cn(C2CC2)c2cc(N3CCNCC3)c(F)cc2c1=O [CIPROFLOXACIN] | – | – | 12.5 mg/L (≈ 37.7 µM) | 12.5 mg/L (≈ 37.7 µM) | – | – | – | – | – | 6.25 mg/L (≈ 18.9 µM) | 12.5 mg/L (≈ 37.7 µM) | – | 6.25 mg/L (≈ 18.9 µM) | – | – | – | – | – | 12.5 mg/L (≈ 37.7 µM) | – | zone of inhibition at 500 µg/mL (Klebsiella pneumoniae [25]): 25 mm; zone of inhibition at 500 µg/mL (Staphylococcus aureus [26]): 20 mm; zone of inhibition at 500 µg/mL (Proteus vulgaris [27]): 23 mm; zone of inhibition at 500 µg/mL (Bacillus subtilis [28]): 22 mm; zone of inhibition at 500 µg/mL (Pseudomonas aeruginosa [29]): 24 mm; zone of inhibition at 500 µg/mL (Priestia megaterium [30]): 24 mm; zone of inhibition at 500 µg/mL (Micrococcus luteus [31]): 20 mm |
| CC(=O)N1CCN(c2ccc(OCC3COC(Cn4ccnc4)(c4ccc(Cl)cc4Cl)O3)cc2)CC1 (stereo not given) [KETOCONAZOLE] | – | – | – | – | – | – | – | – | – | – | – | 6.25 mg/L (≈ 11.8 µM) | – | – | – | – | 3.12 mg/L (≈ 5.87 µM) | – | – | – | zone of inhibition at 500 µg/mL (Candida albicans [32]): 22 mm; zone of inhibition at 500 µg/mL (Saccharomyces cerevisiae [33]): 23 mm |
